From paper PMC5722316, “Synthesis of novel purpurealidin analogs and evaluation of their effect on the cancer-relevant potassium channel KV10.1” (PLoS ONE, 2017)
Read-outs that look alike come from different tables or passages of the source.

Assays:
hKV10.1a [1] = molecular target: T1, hKV10.1a (Homo sapiens, UniProt O95259); assay: Two-electrode voltage-clamp recordings of KV10.1 currents in Xenopus laevis oocytes; type: cell-based
T1 construct: expressed in transfected cells; host or cells: Xenopus laevis oocytes injected with cRNA transcribed from the hKV10.1a-pSGEM plasmid
T1 sequence (O95259 1-962 isoform O95259-2): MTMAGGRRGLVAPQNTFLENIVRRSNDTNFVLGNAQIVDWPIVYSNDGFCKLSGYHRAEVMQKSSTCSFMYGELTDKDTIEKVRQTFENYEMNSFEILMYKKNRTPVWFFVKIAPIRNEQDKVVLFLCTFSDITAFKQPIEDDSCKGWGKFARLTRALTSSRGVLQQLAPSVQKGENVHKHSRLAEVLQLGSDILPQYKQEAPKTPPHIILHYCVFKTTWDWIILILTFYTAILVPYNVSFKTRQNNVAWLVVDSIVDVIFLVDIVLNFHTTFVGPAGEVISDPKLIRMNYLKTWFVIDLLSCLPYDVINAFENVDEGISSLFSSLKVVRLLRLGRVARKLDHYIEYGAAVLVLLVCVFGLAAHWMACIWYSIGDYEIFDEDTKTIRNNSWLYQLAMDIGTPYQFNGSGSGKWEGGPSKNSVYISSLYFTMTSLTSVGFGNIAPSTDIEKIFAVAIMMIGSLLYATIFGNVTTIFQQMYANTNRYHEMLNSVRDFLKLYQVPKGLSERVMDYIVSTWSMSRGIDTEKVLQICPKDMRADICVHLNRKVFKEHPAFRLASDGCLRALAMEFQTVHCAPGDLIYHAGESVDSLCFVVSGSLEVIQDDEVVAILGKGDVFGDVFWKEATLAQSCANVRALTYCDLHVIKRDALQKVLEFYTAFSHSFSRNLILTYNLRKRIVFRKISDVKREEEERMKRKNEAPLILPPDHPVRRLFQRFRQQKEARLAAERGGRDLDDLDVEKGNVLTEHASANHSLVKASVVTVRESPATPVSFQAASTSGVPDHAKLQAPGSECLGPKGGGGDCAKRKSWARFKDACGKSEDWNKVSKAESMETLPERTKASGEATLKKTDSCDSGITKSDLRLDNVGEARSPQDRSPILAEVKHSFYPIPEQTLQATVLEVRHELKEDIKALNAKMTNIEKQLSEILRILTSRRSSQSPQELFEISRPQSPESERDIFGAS
Excerpt: For the expression of hKV10.1a (GeneBank accession number: NM_002238.3) in Xenopus oocytes, the hKV10.1a-pSGEM plasmid was linearized with SfiI (ThermoFisher Scientific, Waltham, Massachusetts, USA) and transcribed using the T7 mMESSAGE-mMACHINE transcription kit (Ambion®, Carlsbad, California, USA).
Stage V-VI Xenopus laevis (African clawed frog) oocytes were isolated by partial ovariectomy. Mature female animals were purchased from Nasco (Fort Atkinson, Wisconsin, USA) and were housed in the Aquatic Facility (KU Leuven) in compliance with the regulations of the European Union (EU) concerning the welfare of laboratory animals as declared in Directive 2010/63/EU. The use of Xenopus laevis was approved by the Animal Ethics Committee of the KU Leuven (Project nr. P038/2017). Prior to harvesting the oocytes, the animals were anesthetized by a 15-min submersion in 0.1% tricaine methanesulfonate (pH 7.0). Isolated oocytes were defolliculated with 1.5 mg/mL collagenase.
Defolliculated oocytes were injected with 4 nL of cRNA at a concentration of 1 ng/nL using a micro-injector (Drummond Scientific®, Broomall, Pennsylvania, USA). The oocytes were incubated in a solution containing (in mM): NaCl, 96; KCl, 2; CaCl2, 1.8; MgCl2, 2 and HEPES, 5 (pH 7.4), supplemented with 50 mg/L gentamycin sulfate.
Two-electrode voltage-clamp recordings were performed at room temperature (18–22°C) using a Geneclamp 500 amplifier (Molecular Devices, USA) controlled by a pClamp data acquisition system (Axon Instruments®, Union City, California, USA). Whole cell currents from oocytes were recorded 1–4 days after injection. Bath solution composition was (in mM): NaCl, 96; KCl, 2; CaCl2, 1.8; MgCl2, 2 and HEPES, 5 (pH 7.5). Voltage and current electrodes were filled with a 3 M solution of KCl in H2O. Resistances of both electrodes were kept between 0.5 and 1.5 MΩ. The elicited KV10.1 currents were filtered at 1 kHz and sampled at 2 kHz using a four-pole low-pass Bessel filter. Leak subtraction was performed using a -P/4 protocol. KV10.1 currents were evoked by 2-s depolarizing pulses to 0 mV from a holding potential of -90 mV unless otherwise indicated.
All electrophysiological data are presented as means ± S.E.M of n ≥ 3 independent experiments unless otherwise indicated. All data was analyzed using pClamp Clampfit 10.4 (Molecular Devices®, Downingtown, Pennsylvania, USA) and OriginPro 8 (Originlab®, Northampton, Massachusetts, USA) or GraphPad Prism 5 software (GraphPad Software, Inc., San Diego, California, USA).

Xenopus oocytes = assay: 48-h incubation of Xenopus oocytes, oocyte quality; type: cell-based, Xenopus laevis; details: 10 μM
Excerpt: A dose-dependent antiproliferative and cytotoxic effect was not only observed on the KV10.1-expressing cells but also on the control cell lines.

hKV10.1a [2] = molecular target: T1, hKV10.1a; assay: Two-electrode voltage-clamp recordings of KV10.1 currents in Xenopus laevis oocytes; type: cell-based; remark: listed apart in the source

- melting point: 79 to 81 °C
- remaining current, % of the control current (hKV10.1a [1]; 10 μM added during 20-s continuous step to 30 mV): approximately 50%
- reversibility of KV10.1 inhibition (hKV10.1a [1]; 10 μM, wash-out): reversible
- effect on KV10.1 inactivation (two-pulse protocol) (hKV10.1a [1]; 10 μM, 1.5-s prepulse -140 mV to 50 mV, 0.5-s test pulse to 30 mV): an apparent inactivation is induced
- inhibition at 10 µM (hKV10.1a [1]; 10 μM, 2-s depolarizing pulses to 0 mV from -90 mV, read-out: KV10.1 current inhibition): 51 ± 3%
- shift of activation curve (ΔV1/2) to more negative potentials (hKV10.1a [1]; 10 μM, ND96 (2 mM extracellular K+), Boltzmann fit): 21.0 ± 1.6 mV
- half-maximal voltage of activation (V1/2) in presence of compound (hKV10.1a [1]; 10 μM, ND96 (2 mM extracellular K+), control V1/2 = 23.2 ± 0.4 mV): 2.1 ± 0.4 mV
- slope factor k of activation curve in presence of compound (hKV10.1a [1]; 10 μM, ND96, control k = 15.5 ± 0.4): 13.8 ± 0.3
- time constant (τ) of wash-out (hKV10.1a [1]; 10 μM, one phase association equation): ~ 20 s
- exponential time constant (τ) of wash-in (hKV10.1a [1]; 10 μM, one phase decay equation): 5.3 s
- inhibition at 10 µM (hKV10.1a [1]; 10 μM, oocyte clamped at -90 mV for 10 minutes, then 2-s pulse to 0 mV, read-out: KV10.1 current inhibition after clamping at -90 mV): 53 ± 4%
- KV10.1 current inhibition (hKV10.1a [1]; 40 μM, extracellular perfusion, average ± SEM): 86.9 ± 1.3%
- inhibition at 40 µM (hKV10.1a [1]; 40 μM, extracellular perfusion, average ± SEM, read-out: KV10.1 current inhibition): 87 ± 1%
- Hill coefficient (hKV10.1a [1]; 8 concentrations 0.04 μM to 80 μM, logistic dose-response fit): 1.6 ± 0.3
- IC50 (hKV10.1a [1]; 8 concentrations 0.04 μM to 80 μM, logistic dose-response fit, read-out: IC50 of KV10.1 current inhibition): 7.7 ± 1 µM
- competition plot with mibefradil (hKV10.1a [1]; mixtures p*10 μM 5 and (1-p)*10 μM mibefradil, 7 ratios): compete for the same binding site
- time constant (τ) of current decrease on open channels (hKV10.1a [2]; 10 μM added during 20-s continuous step to 30 mV, no P/4 leak subtraction): ~ 1.4 s
- shift of activation curve (ΔV1/2) to more negative potentials (hKV10.1a [2]; 10 μM, HK solution ([K+]e = 96 mM), Boltzmann fit): 14.8 ± 2.1 mV
- half-maximal voltage of activation (V1/2) in presence of compound (hKV10.1a [2]; 10 μM, HK solution ([K+]e = 96 mM), control V1/2 = 39.3 ± 1.7 mV): 24.5 ± 1.3 mV
- slope factor k of activation curve in presence of compound (hKV10.1a [2]; 10 μM, HK solution, control k = 15.7 ± 0.9): 14.5± 1.0
SMILES: COc1ccc(C(=O)NCCc2cc(Br)c(OCCCN(C)C)c(Br)c2)cc1Cl [Compound 5, 3-Chloro-N-[3,5-dibromo-4-[3-(dimethylamino)propoxy]phenethyl]-4-methoxybenzamide]
- oocyte quality (visual and electrophysiological observation) (Xenopus oocytes): did not result in noticeable deterioration of the oocyte quality
